The results in this text go back to US8765433B2, “Alcohol dehydrogenases (ADH) useful for fermentive production of lower alkyl alcohols” (priority 2009, dated 2014).

Broadly, the Km is the concentration of substrate that gives half-maximal velocity. As a reminder, the kcat is the maximal rate divided by the concentration of active sites.

Some results are limits rather than exact numbers.

Common to all, as to type: biochemical
Experiment [1] has as its target T1, Beijerinckia indica subsp. Indica ATCC 9039 ADH (BiADH), SEQ ID NO: 31 (Beijerinckia indica, UniProt B2IGW3).
T1 sequence (B2IGW3 1-347): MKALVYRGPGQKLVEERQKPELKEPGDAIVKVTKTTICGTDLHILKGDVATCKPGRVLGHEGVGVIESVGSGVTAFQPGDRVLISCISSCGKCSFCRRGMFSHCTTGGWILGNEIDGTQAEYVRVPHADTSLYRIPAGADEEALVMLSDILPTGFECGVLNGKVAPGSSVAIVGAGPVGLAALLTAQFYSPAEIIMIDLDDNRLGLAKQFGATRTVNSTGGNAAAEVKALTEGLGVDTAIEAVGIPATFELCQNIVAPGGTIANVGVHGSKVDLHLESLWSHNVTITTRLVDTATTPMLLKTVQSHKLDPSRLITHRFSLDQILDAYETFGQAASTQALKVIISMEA
From the text:
(§1) This example describes preparation of ADH-gene constructs for over-expression/purification and measurement of enzyme activities using a time-course assay. Horse-liver ADH (HLADH; A-6128) was purchased from Sigma. Achromobacter xylosoxidans SadB (SadB), Saccharomyces cerevisiae ADH6 (ScADH6) and ADH7 (ScADH7), Entamoeba histolytica ADH1 (EhADH1), Bos Taurus Aldehyde Reductase (BtARD), Beijerinckia indica subsp. Indica ATCC 9039 (BiADH), Clostridium beijerinckii ADH (CbADH), Rana perezi ADH8 (RpADH8), Rattus norvegicus ADH1 (RnADH1), Thermus sp. ATN1 ADH (TADH), Phenylobacterium zucineum HLK1 ADH (PzADH), Methylocella silvestris BL2 ADH (MsADH), Acinetobacter baumannii AYE ADH (AbADH), Geobacillus sp. WCH70 ADH (GbADH), Vanderwaltozyma polyspora DSM 70294 ADH (VpADH), Mucor circinelloides ADH (McADH), and Rhodococcus erythropolis PR4ADH (ReADH) were the candidates for which subclones were prepared for protein expression and purification.
(§2) As a routine practice, the crude extracts and purified proteins were assayed for butanol oxidation activity, in order to ensure that the recombinant proteins were active throughout the purification process. […] Alcohol oxidation activities were carried out in 50 mM sodium phosphate buffer at pH 8.8 and aldehyde reduction reactions were assayed in 190 mM potassium phosphate buffer at pH 7.0. Depending on the nature of reaction being carried out, the enzyme and cofactor stocks were diluted in the reaction buffers at the respective pHs. Either buffer or cell extract prepared from the proprietary E. coli strain (with no ADH plasmid) was used as the negative control for assays with purified protein and cell-free extracts, respectively.
(§3) Kinetic constants of the ADH enzymes were calculated and compared to identify those candidate ADH enzymes with the most desirable properties for the conversion of isobutyraldehyde to isobutanol in the last step of the engineered pathway for isobutanol production. The assays for determining the kinetic constants were carried out using initial rates from the assays described above. […] The concentration of a given enzyme was such that it was conducive for the measurement of initial velocities over a 1-min time course. For each enzyme, Michaelis-Menten plots were generated with a broad range of substrate concentrations. Rough estimates of KM were obtained, based on which the assays were redesigned so as to use substrate concentrations in the range 0.5 to 10 times the KM value, to be able to obtain the appropriate kinetic constants. […] Reactions with isobutanol substrate were performed at 30° C. in 50 mM Sodium phosphate buffer, pH 8.8, containing 7.5 mM NAD. The Enzyme kinetics module (Version 1.3) of SigmaPlot 11 (Systat Software, Inc.) was used to fit data to Michaelis-Menten equations and calculate the kinetic constants. The kcat/KM is derived from the individual numbers of kcat and KM and not an experimentally determined value.
(§4) For those enzymes marked with an asterisk in Table 7, at least 3 assays were performed with separate preparations of the enzyme. All other numbers are values from either one assay or are averages from 2 assays performed with the same enzyme sample.

Experiment [2] concerns the target T2, Clostridium beijerinckii ADH (CbADH), SEQ ID NO: 29 (Clostridium beijerinckii, UniProt P25984).
T2 construct: hexa-histidine (pBADHisA) (N); made in house; host or cells: E. coli (BL21-CodonPlus or a proprietary E. coli strain)
T2 sequence (P25984 1-351): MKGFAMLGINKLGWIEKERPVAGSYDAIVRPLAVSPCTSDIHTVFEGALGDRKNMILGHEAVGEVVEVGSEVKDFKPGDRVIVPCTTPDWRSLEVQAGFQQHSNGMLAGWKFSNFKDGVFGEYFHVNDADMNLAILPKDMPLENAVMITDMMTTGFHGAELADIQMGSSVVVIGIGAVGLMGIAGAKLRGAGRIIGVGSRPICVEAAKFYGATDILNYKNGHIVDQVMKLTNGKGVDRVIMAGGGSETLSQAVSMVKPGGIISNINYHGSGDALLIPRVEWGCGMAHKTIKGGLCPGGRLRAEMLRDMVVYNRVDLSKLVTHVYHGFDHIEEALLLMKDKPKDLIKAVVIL
The experiment can be described thus: isobutyraldehyde reduction kinetics (A340, initial rates). Particulars: relative to SadB.
Description: as §1, §2, §3, §4

The target of experiment [3] is T3, Thermus sp. ATN1 ADH (TADH), SEQ ID NO: 33 (Thermus sp. ATN1, UniProt B2ZRE3).
T3 sequence (B2ZRE3 1-347): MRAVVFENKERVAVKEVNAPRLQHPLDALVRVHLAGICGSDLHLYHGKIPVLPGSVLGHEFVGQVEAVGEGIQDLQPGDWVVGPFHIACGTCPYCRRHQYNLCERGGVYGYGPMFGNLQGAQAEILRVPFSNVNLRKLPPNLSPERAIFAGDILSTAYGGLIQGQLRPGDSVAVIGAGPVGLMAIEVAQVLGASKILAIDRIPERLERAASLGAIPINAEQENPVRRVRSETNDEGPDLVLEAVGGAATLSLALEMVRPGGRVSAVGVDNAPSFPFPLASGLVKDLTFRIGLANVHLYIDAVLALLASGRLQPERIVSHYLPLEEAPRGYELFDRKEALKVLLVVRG
The experiment is described as above. Particulars: relative to SadB.
Description: as §1, §2, §3, §4

The target of experiment [4] is T4, Rattus norvegicus ADH1 (RnADH1), SEQ ID NO: 32 (Rattus norvegicus, UniProt P06757).
T4 construct: hexa-histidine (pBADHisA) (N); made in house; host or cells: E. coli (BL21-CodonPlus or a proprietary E. coli strain)
T4 sequence (P06757 whole entry): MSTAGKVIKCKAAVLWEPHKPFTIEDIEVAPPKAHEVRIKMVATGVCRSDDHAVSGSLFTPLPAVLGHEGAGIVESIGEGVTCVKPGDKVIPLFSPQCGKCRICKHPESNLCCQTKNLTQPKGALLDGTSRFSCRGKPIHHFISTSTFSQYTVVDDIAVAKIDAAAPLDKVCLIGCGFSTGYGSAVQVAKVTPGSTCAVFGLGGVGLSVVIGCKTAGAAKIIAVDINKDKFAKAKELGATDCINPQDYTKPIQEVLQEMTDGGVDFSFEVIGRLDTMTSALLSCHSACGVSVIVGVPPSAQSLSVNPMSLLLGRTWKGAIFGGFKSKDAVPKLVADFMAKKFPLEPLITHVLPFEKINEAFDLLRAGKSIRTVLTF
The description is as above.
Description: as §1, §2, §3, §4

Consider `CC(C)CO` [isobutanol, 2-methylpropan-1-ol], for which the “KI as a percentage of the same parameter for SadB” value in experiment [1] (relative to SadB) was 20%.
On to `CC(C)C=O` [isobutyraldehyde], for which the “KM as a percentage of the same parameter for SadB” value in experiment [2] is 150%; in experiment [3] it was 130%; in experiment [4] (relative to SadB) it was less than 1%; in experiment [1] (relative to SadB), 20%. For the same compound, the “kcat as a percentage of the same parameter for SadB” value in experiment [2] turned out to be 113%; in experiment [3], 14%; in experiment [4] (relative to SadB), 5%; in experiment [1] (relative to SadB), 260%. Further, the “kcat/KM as a percentage of the same parameter for SadB” value stood at 81% in experiment [2], 10% in experiment [3], 1588% in experiment [4] (relative to SadB) and 1192% in experiment [1] (relative to SadB). Moreover, in experiment [4] (30° C., pH 7.0, NADH specific, low KM precludes accurate determination, read-out: KM (Isobutanal)), the Km was no more than 3 µM. Also, in experiment [4] (isobutyraldehyde reduction, 30° C., pH 7.0, NADH specific), the kcat is roughly 5 s⁻¹. For the same compound, the “catalytic efficiency for isobutyraldehyde reduction, BiADH relative to SadB” value in experiment [1] (compared with SadB) is reported as roughly 12 times.
